How the values were obtained:
[1] = Dermal toxicity of granular compositions (Example 2, Table I); conditions: rabbit, in vivo, topical or ocular, male albino rabbits, 24 h contact, 14 days observation, read-out: LD50 in mg/kg Body Weight
From the text: Dermal toxicity of granular compositions of the present invention as compared to conventional granular compositions containing the same pesticide, using male albino rabbits as test animal.
1. Five male albino rabbits weighing approximately 2.2 to 3.5 kilograms are selected for each dosage level. The hair is shaved from the entire trunk.
2. Saran tubing or "Vinylite" film, VU 1900, 12 inches wide, 0.04 millimeters thick and of suitable length to fit around the rabbit.
3. One felt cloth bandage measuring approximately 9×18 inches.
4. Four pieces of 11/2 inches adhesive tape approximately 14 inches long.
1. The granular composition to be tested is placed in the center of the plastic film and is moistened with water.
2. The rabbits underside is moistened with water and the animals placed belly down on the material. The plastic film is then bought up and around the animal and secured at each end with strips of adhesive tape.
3. The felt cloth is then placed under the belly and brought up and around the animal and secured to the body with the remaining two strips of adhesive tape.
1. The animal is placed on the plastic film and is wrapped and the film secured with adhesive tape.
2. The test material is then injected under the plastic with an appropriate size needle and syringe.
3. […]
By the above procedure the dermal toxicity of the granular compositions prepared in Example 1 is determined. […]

mammals = conditions: ingestion, inhalation or dermal absorption; cited from earlier work
insects and nematodes = conditions: food and fodder crops; cited from earlier work

With `CCOP(=S)(OCC)SCSC(C)(C)C` as the molecule, how does the LD50 at 336 h [1] read?
Its LD50 at 336 h is 1 to 1.4 mg/kg.

And the “toxicity to mammals when introduced into the mammalian circulatory system” value (mammals)?
Its value is “extremely toxic to mammals”.

What about the “control of a broad spectrum of insects and nematodes” value (insects and nematodes) of the same molecule?
Its value is “highly effective”.
